Consider ten molecules from patent US11504382B2, “Tricyclic inhibitors of Hepatitis B virus” (Antios Therapeutics, Inc., priority 2018, dated 2022).

The subject of this test is HBV. As to the kind of experiment: HBV inhibition assay in HepAD38 cells (extracellular HBV DNA by direct qPCR). Format: cell-based, Hepatitis B virus. The settings on record: Hepatitis B virus, 96 hours; for EC50: 8-point dose-response curve, read-out: HBV inh EC50; for inhibition at 0.1 µM / inhibition at 0.05 µM: relative to non-treated reference, read-out: Anti HBV Activity (conc μM). On the technique in general: Real-time PCR tracks product formation cycle by cycle.

As a reminder, the EC50 is the concentration that produces a half-maximal response.

Molecules are shown by their SMILES.

For the molecule `Cn1cc2c(c1C(=O)Nc1ccc(F)c(F)c1)OC[C@@H]1CCC[C@H]1NS2(=O)=O` [Example E8, (5aR,8aR)—N-(3,4-difluorophenyl)-2-methyl-5a,6,7,8,8a,9-hexahydro-2H,5H-cyclopenta[f]pyrrolo[3,4-b][1,4,5]oxathiazocine-1-carboxamide 4,4-dioxide], the EC50 was below 1000 nM.

Regarding `Cn1cc2c(c1C(=O)Nc1ccc(F)c(F)c1)OC[C@H]1CCC[C@@H]1NS2(=O)=O` [Example E9, (5aS,8aS)—N-(3,4-difluorophenyl)-2-methyl-5a,6,7,8,8a,9-hexahydro-2H,5H-cyclopenta[f]pyrrolo[3,4-b][1,4,5]oxathiazocine-1-carboxamide 4,4-dioxide], the EC50 was below 1000 nM. On to `CCOC(=O)N1CC[C@H]2NS(=O)(=O)c3cn(C)c(C(=O)Nc4ccc(F)c(F)c4)c3OC[C@H]21` [Example E27, Ethyl (3aR,10aS)-8-((3,4-difluorophenyl)carbamoyl)-7-methyl-2,3,3a,4,10,10a-hexahydro-1H,7H-dipyrrolo[3,4-b:3′,2′-f][1,4,5]oxathiazocine-1-carboxylate 5,5-dioxide], for which the inhibition at 0.1 µM was below 50%.

`Cn1cc2c(c1C(=O)Nc1ccc(F)c(F)c1)OCC1(C)CCCC1NS2(=O)=O` (stereo not shown) [Example E29, N-(3,4-difluorophenyl)-2,8a-dimethyl-5a,6,7,8,8a,9-hexahydro-2H,5H-cyclopenta[f]pyrrolo[3,4-b][1,4,5]oxathiazocine-1-carboxamide 4,4-dioxide]: the inhibition at 0.1 µM is below 50%. On the same count and under the same terms, the value for `Cn1cc2c(c1C(=O)Nc1cc(F)c(F)c(F)c1)OC[C@@H]1CNC[C@@H]1NS2(=O)=O` [Example E36, 7-methyl-N-(3,4,5-trifluorophenyl)-2,3,3a,4,10,10a-hexahydro-1H,7H-dipyrrolo[3,4-b:3′,4′-f][1,4,5]oxathiazocine-8-carboxamide 5,5-dioxide (3aR,10aR)] was below 50%.

Consider `Cc1cc(NC(=O)c2c3c(cn2C)S(=O)(=O)NC2CNCC2CO3)ccc1F` (stereo not drawn) [Example E47, cis-N-(4-fluoro-3-methylphenyl)-7-methyl-2,3,3a,4,10,10a-hexahydro-1H,7H-dipyrrolo[3,4-b:3′,4′-f][1,4,5]oxathiazocine-8-carboxamide 5,5-dioxide hydroiodide], for which the inhibition at 0.05 µM is above 50% and the EC50 was below 1000 nM. With `Cc1cc(NC(=O)c2c3c(cn2C)S(=O)(=O)NC2CN(c4cccnc4)CC2CO3)ccc1F` (stereo not drawn) [Example E48, cis-N-(4-fluoro-3-methylphenyl)-7-methyl-2-(pyridin-3-yl)-2,3,3a,4,10,10a-hexahydro-1H,7H-dipyrrolo[3,4-b:3′,4′-f][1,4,5]oxathiazocine-8-carboxamide 5,5-dioxide], the EC50 is below 1000 nM.

Turning to `Cc1cc(NC(=O)c2c3c(cn2C)S(=O)(=O)NC2CN(c4nnco4)CC2CO3)ccc1F` (stereo not drawn) [Example E49, cis-N-(4-fluoro-3-methylphenyl)-7-methyl-2-(1,3,4-oxadiazol-2-yl)-2,3,3a,4,10,10a-hexahydro-1H,7H-dipyrrolo[3,4-b:3′,4′-f][1,4,5]oxathiazocine-8-carboxamide 5,5-dioxide], the EC50 is below 1000 nM. Consider `Cc1nnc(C(=O)N2CC3COc4c(cn(C)c4C(=O)Nc4cc(F)c(F)c(F)c4)S(=O)(=O)NC3C2)o1` (stereo not drawn) [Example E51, cis-7-methyl-2-(5-methyl-1,3,4-oxadiazole-2-carbonyl)-N-(3,4,5-trifluorophenyl)-2,3,3a,4,10,10a-hexahydro-1H,7H-dipyrrolo[3,4-b:3′,4′-f][1,4,5]oxathiazocine-8-carboxamide 5,5-dioxide], for which the inhibition at 0.05 µM is above 50% and the EC50 was below 1000 nM. Consider `Cc1cc(C(=O)N2CC3COc4c(cn(C)c4C(=O)Nc4ccc(F)c(C)c4)S(=O)(=O)NC3C2)no1` (stereo not drawn) [Example E52, cis-N-(4-fluoro-3-methylphenyl)-7-methyl-2-(5-methylisoxazole-3-carbonyl)-2,3,3a,4,10,10a-hexahydro-1H,7H-dipyrrolo[3,4-b:3′,4′-f][1,4,5]oxathiazocine-8-carboxamide 5,5-dioxide], for which the inhibition at 0.05 µM was above 50% and the EC50 is below 1000 nM.
